According to ChEMBL document CHEMBL2407047, “Molecular design, synthesis and biological evaluation of 1,4-dihydro-4-oxoquinoline ribonucleosides as TcGAPDH inhibitors with trypanocidal activity” (Bioorg Med Chem Lett, 2013):
Calls of active or inactive are those of the source.

Key:
Saccharomyces cerevisiae [1] = experiment: Effect on Saccharomyces cerevisiae TDH3 up to 500 uM
Saccharomyces cerevisiae [2] = experiment: Effect on Saccharomyces cerevisiae TDH2 up to 500 uM
Saccharomyces cerevisiae [3] = experiment: Effect on Saccharomyces cerevisiae TDH1 up to 500 uM

Measured: Activity

Cc1ccc2c(=O)c(C(=O)O)cn([C@@H]3O[C@H](CO)[C@@H](O)[C@H]3O)c2c1
inactive: all assays above

O=C(O)c1cn([C@@H]2O[C@H](CO)[C@@H](O)[C@H]2O)c2ccc(Br)cc2c1=O
inactive: all assays above

O=C(O)c1cn([C@@H]2O[C@H](CO)[C@@H](O)[C@H]2O)c2cc(Br)ccc2c1=O
inactive: all assays above

Cc1ccc2c(c1)c(=O)c(C(=O)O)cn2[C@@H]1O[C@H](CO)[C@@H](O)[C@H]1O
inactive: all assays above

COc1ccc2c(c1)c(=O)c(C(=O)O)cn2[C@@H]1O[C@H](CO)[C@@H](O)[C@H]1O
inactive: all assays above

O=C(O)c1cn([C@@H]2O[C@H](CO)[C@@H](O)[C@H]2O)c2ccc(Cl)cc2c1=O
inactive: all assays above

COc1ccc2c(=O)c(C(=O)O)cn([C@@H]3O[C@H](CO)[C@@H](O)[C@H]3O)c2c1
inactive: all assays above
